Results taken from ChEMBL document CHEMBL1201862, “PubChem BioAssay data set” (2004).
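Grown in 96-well plates, cells were treated for 48 hours with each compound at five concentrations. Insufficient inhibition: endpoint recorded as highest concentration tested. GI50 is the concentration that inhibits growth by half.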 Active and inactive are the calls of the source. No stated cut-off is given here; in the data, active = GI50 up to about 1.1 µM and inactive = higher.

How the values were obtained:
Experiment in all cases: NCI tumour cell line growth inhibition, 48 h
786-0 = test system: 786-0
A498 = test system: A498
A549 = test system: A549
ACHN = test system: ACHN
CAKI-1 = test system: CAKI-1
CCRF-CEM = test system: CCRF-CEM
COLO 205 = test system: COLO 205
DU-145 = test system: DU-145
EKVX = test system: EKVX
HCC 2998 = test system: HCC 2998
HCT-116 = test system: HCT-116
HCT-15 = test system: HCT-15
HL-60 = test system: HL-60
HOP-62 = test system: HOP-62
HOP-92 = test system: HOP-92
HT-29 = test system: HT-29
Hs-578T = test system: Hs-578T
IGROV-1 = test system: IGROV-1
K562 = test system: K562
KM12 = test system: KM12
LOX IMVI = test system: LOX IMVI
M14 = test system: M14
MCF7 = test system: MCF7
MDA-MB-231 = test system: MDA-MB-231
MDA-MB-435 = test system: MDA-MB-435
MOLT-4 = test system: MOLT-4
Malme-3M = test system: Malme-3M
NCI-H226 = test system: NCI-H226
NCI-H23 = test system: NCI-H23
NCI-H460 = test system: NCI-H460
NCI-H522 = test system: NCI-H522
NCI/ADR-RES = test system: NCI/ADR-RES
OVCAR-3 = test system: OVCAR-3
OVCAR-4 = test system: OVCAR-4
OVCAR-5 = test system: OVCAR-5
OVCAR-8 = test system: OVCAR-8
PC-3 = test system: PC-3
RPMI-8226 = test system: RPMI-8226
RXF 393 = test system: RXF 393
SF-268 = test system: SF-268
SF-295 = test system: SF-295
SF-539 = test system: SF-539
SK-MEL-28 = test system: SK-MEL-28
SK-MEL-2 = test system: SK-MEL-2
SK-MEL-5 = test system: SK-MEL-5
SK-OV-3 = test system: SK-OV-3
SN12C = test system: SN12C
SNB-19 = test system: SNB-19
SNB-75 = test system: SNB-75
SR = test system: SR
SW-620 = test system: SW-620
T47D = test system: T47D
TK-10 = test system: TK-10
U-251 = test system: U-251
UACC-257 = test system: UACC-257
UACC-62 = test system: UACC-62
UO-31 = test system: UO-31

Measured: GI50

CC(C)(C)[Si](C)(C)OCC1OC(n2cnc3c(NC(=O)c4ccccc4)ncnc32)CC1O (configuration not stated)
inactive: 786-0 21.4 µM | A498 32.9 µM | A549 42.7 µM | ACHN 31.4 µM | CAKI-1 49 µM | CCRF-CEM 22.4 µM | COLO 205 18.3 µM | DU-145 64 µM | EKVX 40.3 µM | HCC 2998 27.7 µM | HCT-116 29.7 µM | HL-60 28 µM | HOP-62 19 µM | HOP-92 23.5 µM | HT-29 36.5 µM | Hs-578T 19.2 µM | IGROV-1 33.7 µM | K562 23.4 µM | KM12 34.7 µM | LOX IMVI 18.7 µM | M14 19.9 µM | MCF7 44.4 µM | MDA-MB-231 22.1 µM | MDA-MB-435 22.1 µM | MOLT-4 19 µM | Malme-3M 30.5 µM | NCI-H226 24.5 µM | NCI-H23 48.9 µM | NCI-H460 32.7 µM | NCI-H522 14.4 µM | NCI/ADR-RES 38.9 µM | OVCAR-3 39.9 µM | OVCAR-4 24 µM | OVCAR-5 36.7 µM | OVCAR-8 39.3 µM | PC-3 37.5 µM | RPMI-8226 21.8 µM | RXF 393 22.3 µM | SF-268 64.4 µM | SF-295 24.4 µM | SF-539 23.3 µM | SK-MEL-28 36.7 µM | SK-MEL-2 27.2 µM | SK-MEL-5 17.5 µM | SK-OV-3 23.2 µM | SN12C 33.4 µM | SNB-19 28.6 µM | SNB-75 26.7 µM | SR 25.1 µM | SW-620 40.9 µM | T47D 30.2 µM | TK-10 58.7 µM | U-251 20.5 µM | UACC-257 39.5 µM | UACC-62 18.7 µM | UO-31 1.47 µM
51.1 µM: HCT-15
